Results: PubChem BioAssay AID330 (DTP/NCI, 2004)
Several values for one entry are separate records, joined by “and”; a condition that tells them apart may be missing. Equal entries are not always repeated. Toxic doses and inconclusive results are not listed. Rule for the calls: active = survival T/C of 150% or more; inactive = T/C below 125% in these data.

System: P388 leukemia ip, CD2F1 mice, survival T/C
Assay: NCI In Vivo Anticancer Drug Screen. Data for tumor model P388 Leukemia (intraperitoneal) in CD2F1 (CDF1) mice
Details: endpoint: median survival time, higher = longer survival
Method in brief: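 Mice carrying the transplanted tumor received test compound or vehicle. Survival was recorded in each group, and the value is the treated-group measurement divided by that of the vehicle-treated control group.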

[1] = dose: 50.0 mg/kg/injection, schedule: Q01DX005 (ip), vehicle: saline with Tween-80
[2] = dose: 60.0 mg/kg/injection, schedule: Q01DX005 (ip), vehicle: saline with Tween-80
[3] = dose: 120.0 mg/kg/injection, schedule: Q01DX005 (ip), vehicle: saline with Tween-80
[4] = dose: 240.0 mg/kg/injection, schedule: Q01DX005 (ip), vehicle: saline with Tween-80
[5] = dose: 50.0 mg/kg/injection, schedule: Q01DX005 (ip), vehicle: saline
[6] = dose: 12.5 mg/kg/injection, schedule: Q01DX009 (ip), vehicle: distilled water + Tween-80
[7] = dose: 25.0 mg/kg/injection, schedule: Q01DX009 (ip), vehicle: distilled water + Tween-80
[8] = dose: 50.0 mg/kg/injection, schedule: Q01DX009 (ip), vehicle: distilled water + Tween-80
[9] = dose: 100.0 mg/kg/injection, schedule: Q01DX009 (ip), vehicle: distilled water + Tween-80
[10] = dose: 50.0 mg/kg/injection, schedule: Q01DX009 (ip), vehicle: saline with Tween-80
[11] = dose: 100.0 mg/kg/injection, schedule: Q01DX009 (ip), vehicle: saline with Tween-80
[12] = dose: 200.0 mg/kg/injection, schedule: Q01DX009 (ip), vehicle: saline with Tween-80
[13] = dose: 25.0 mg/kg/injection, schedule: Q01DX005 (ip), vehicle: Klucel (hydroxypropylcellulose) (HPC)
[14] = dose: 50.0 mg/kg/injection, schedule: Q01DX005 (ip), vehicle: Klucel (hydroxypropylcellulose) (HPC)
[15] = dose: 100.0 mg/kg/injection, schedule: Q01DX005 (ip), vehicle: Klucel (hydroxypropylcellulose) (HPC)
[16] = dose: 200.0 mg/kg/injection, schedule: Q01DX005 (ip), vehicle: Klucel (hydroxypropylcellulose) (HPC)
[17] = dose: 50.0 mg/kg/injection, schedule: Q01DX009 (ip), vehicle: Klucel (hydroxypropylcellulose) (HPC)
[18] = dose: 100.0 mg/kg/injection, schedule: Q01DX009 (ip), vehicle: Klucel (hydroxypropylcellulose) (HPC)
[19] = dose: 100.0 mg/kg/injection, schedule: Q01DX005 (ip), vehicle: saline with Tween-80

Measured: T/C

S=c1n(-c2ccc(Cl)cc2)c2nc3ccccc3nc(/c2=N\Nc2ccc(Br)cc2)n1-c1ccccn1
inactive: [1] 101 % of control

O=c1c(N=Nc2ccccc2)c[nH]n1-c1ccccc1
inactive: dose: 62.5 mg/kg/injection, schedule: Q01DX009 (ip), vehicle: saline with Tween-80 97 % of control | dose: 125.0 mg/kg/injection, schedule: Q01DX009 (ip), vehicle: saline with Tween-80 97 % of control | dose: 250.0 mg/kg/injection, schedule: Q01DX009 (ip), vehicle: saline with Tween-80 94 % of control

O=C(Cc1ccc([N+](=O)[O-])cc1)ON1C(=O)CCC1=O
inactive: [2] 117 % of control | [3] 114 % of control

COc1ccc(C2OC(=N)C(=S)N2C)cc1O (configuration not stated)
inactive: dose: 60.0 mg/kg/injection, schedule: Q01DX005 (ip), vehicle: Klucel (hydroxypropylcellulose) (HPC) 112 % of control | dose: 120.0 mg/kg/injection, schedule: Q01DX005 (ip), vehicle: Klucel (hydroxypropylcellulose) (HPC) 109 % of control | dose: 240.0 mg/kg/injection, schedule: Q01DX005 (ip), vehicle: Klucel (hydroxypropylcellulose) (HPC) 112 % of control

CCOC(=O)C(=CNc1cc(C)c2[nH]c3ccc(Cl)cc3c2c1C)C(=O)OCC
inactive: [2] 92 % of control | [3] 93 % of control | [4] 86 % of control and 94 % of control

COc1cc(NCC(C)(O)CN2CCCCC2)c2ncccc2c1 (configuration not stated)
inactive: dose: 12.5 mg/kg/injection, schedule: Q01DX005 (ip), vehicle: saline 94 % of control | dose: 25.0 mg/kg/injection, schedule: Q01DX005 (ip), vehicle: saline 98 % of control | [5] 93 % of control and 97 % of control

CCOC(=O)NOC1CCCCO1 (configuration not stated)
inactive: dose: 50.0 mg/kg/injection, schedule: Q01DX009 (ip), vehicle: saline 91 % of control | dose: 100.0 mg/kg/injection, schedule: Q01DX009 (ip), vehicle: saline 105 % of control | dose: 200.0 mg/kg/injection, schedule: Q01DX009 (ip), vehicle: saline 104 % of control

CC1CC[N-]C(C)C1.CN(C)C=O.[Cl][Pt][Cl] (configuration not stated)
inactive: dose: 1.56 mg/kg/injection, schedule: Q01DX009 (ip), vehicle: saline with Tween-80 114 % of control | dose: 3.13 mg/kg/injection, schedule: Q01DX009 (ip), vehicle: saline with Tween-80 124 % of control

CC(=O)Nc1cccn(C)c1=O
inactive: dose: 6.25 mg/kg/injection, schedule: Q01DX009 (ip), vehicle: distilled water + Tween-80 100 % of control | [6] 100 % of control | dose: 12.5 mg/kg/injection, schedule: Q01DX009 (ip), vehicle: water 98 % of control | [7] 102 % of control | dose: 25.0 mg/kg/injection, schedule: Q01DX009 (ip), vehicle: water 123 % of control | [8] 107 % of control | dose: 50.0 mg/kg/injection, schedule: Q01DX009 (ip), vehicle: water 112 % of control | [9] 120 % of control | dose: 100.0 mg/kg/injection, schedule: Q01DX009 (ip), vehicle: water 113 % of control | dose: 200.0 mg/kg/injection, schedule: Q01DX009 (ip), vehicle: water 112 % of control

CC(=O)OC1CC2CCC1(/C=C/C(=O)c1ccccc1)C2 (configuration not stated)
inactive: [10] 100 % of control | [11] 100 % of control | [12] 113 % of control

C[Si](C)(C)N([Si](C)(C)C)[Si](C)(C)C
inactive: dose: 50.0 mg/kg/injection, schedule: Q01DX009 (ip), vehicle: other 97 % of control | dose: 100.0 mg/kg/injection, schedule: Q01DX009 (ip), vehicle: other 98 % of control | dose: 200.0 mg/kg/injection, schedule: Q01DX009 (ip), vehicle: other 100 % of control

Cc1nc2cc3c(cc2n2cccc12)oc1ccccc13
inactive: [13] 88 % of control | [14] 96 % of control | [15] 86 % of control

CC(C)COC(=O)NC(C(=O)N(C(=O)NC1CCCCC1)C1CCCCC1)C(C)C (configuration not stated)
inactive: [14] 100 % of control | [15] 95 % of control | [16] 95 % of control

N.N.N.N.N.N.[Cl-].[Pt]
inactive: dose: 12.5 mg/kg/injection, schedule: Q01DX009 (ip), vehicle: saline 92 % of control | dose: 25.0 mg/kg/injection, schedule: Q01DX009 (ip), vehicle: saline 97 % of control

O=C(O)CCCCCCCCCCNC(=O)CCl
inactive: [17] 88 % of control | [18] 91 % of control

CN(C)CCCN1C[C@H]2CC[C@@](C)(C1)C2(C)C
inactive: [1] 105 % of control | [19] 107 % of control | dose: 200.0 mg/kg/injection, schedule: Q01DX005 (ip), vehicle: saline with Tween-80 105 % of control

O=C(O)c1cc2sccc2c(=O)[nH]1
inactive: dose: 100.0 mg/kg/injection, schedule: Q04DX003 (ip), vehicle: Klucel (hydroxypropylcellulose) (HPC) 102 % of control | dose: 200.0 mg/kg/injection, schedule: Q04DX003 (ip), vehicle: Klucel (hydroxypropylcellulose) (HPC) 113 % of control | dose: 400.0 mg/kg/injection, schedule: Q04DX003 (ip), vehicle: Klucel (hydroxypropylcellulose) (HPC) 103 % of control

CCCOn1nnc2ccccc21
inactive: dose: 100.0 mg/kg/injection, schedule: Q04DX003 (ip), vehicle: saline with Tween-80 99 % of control | dose: 200.0 mg/kg/injection, schedule: Q04DX003 (ip), vehicle: saline with Tween-80 102 % of control | dose: 400.0 mg/kg/injection, schedule: Q04DX003 (ip), vehicle: saline with Tween-80 107 % of control

O=CC(O)C(O)C(O)C(O)C(O)C#CC#CC(O)C(O)C(O)C(O)C(O)C=O (configuration not stated)
inactive: [5] 100 % of control | dose: 100.0 mg/kg/injection, schedule: Q01DX005 (ip), vehicle: saline 105 % of control | dose: 200.0 mg/kg/injection, schedule: Q01DX005 (ip), vehicle: saline 92 % of control

C[N+](C)(C)CC(=O)NNC(=O)CCn1[nH]c(=O)c(Cl)c(Cl)c1=O
inactive: [2] 104 % of control | [3] 99 % of control | [4] 97 % of control

COc1ccc(Cc2cc(O)c(O)cc2C)cc1
inactive: dose: 2.5 mg/kg/injection, schedule: Q01DX009 (ip), vehicle: saline with Tween-80 108 % of control | dose: 5.0 mg/kg/injection, schedule: Q01DX009 (ip), vehicle: saline with Tween-80 105 % of control | dose: 10.0 mg/kg/injection, schedule: Q01DX009 (ip), vehicle: saline with Tween-80 108 % of control

CCOC(=O)C(C)(C)Oc1cccc2c1S(=O)(=O)c1ccccc1-2
inactive: [10] 95 % of control | [11] 93 % of control | [12] 100 % of control

C=C1CC2(CC(C(C)C)CCC2C)OC1=O (configuration not stated)
inactive: dose: 100.0 mg/kg/injection, schedule: Q01DX001 (ip), vehicle: saline 105 % of control | dose: 200.0 mg/kg/injection, schedule: Q01DX001 (ip), vehicle: saline 100 % of control | dose: 400.0 mg/kg/injection, schedule: Q01DX001 (ip), vehicle: saline 105 % of control

N#CC1C(=O)NC(=S)NC1c1ccc(Cl)c(Cl)c1 (configuration not stated)
inactive: [17] 100 % of control | [18] 95 % of control | dose: 200.0 mg/kg/injection, schedule: Q01DX009 (ip), vehicle: Klucel (hydroxypropylcellulose) (HPC) 95 % of control

C1CC[N-]CC1.CC(=O)Nc1[c-]cccc1.CC(=O)O.[Pd+2]
inactive: dose: 25.0 mg/kg/injection, schedule: Q01DX005 (ip), vehicle: saline with Tween-80 112 % of control and 95 % of control | [1] 107 % of control and 114 % of control and 119 % of control | [19] 111 % of control

CC(C)C(=O)CCCN1C(=O)c2ccccc2C1=O
inactive: [6] 94 % of control | [7] 86 % of control | [8] 86 % of control | [9] 100 % of control

C/C(=C\C(=O)c1cccc(F)c1)N1CCN(c2ccc(F)cc2)CC1
inactive: [14] 100 % of control | [15] 96 % of control | [16] 100 % of control

CC(C)(C)OC(=O)N/N=C\c1ccnc2ccccc12
inactive: [13] 93 % of control | [14] 96 % of control | [15] 93 % of control

O=C(CCl)NNC1=Nc2ccc(Cl)cc2SC1
inactive: [2] 101 % of control | [3] 104 % of control | [4] 93 % of control

O=C1c2ccccc2C(O)N1CCc1c[nH]c2ccccc12 (configuration not stated)
inactive: [14] 93 % of control | [15] 95 % of control | [16] 91 % of control
